Reference: patent publication US20250092030A1, “ENHANCERS OF PARTICULATE GUANYLYL CYCLASE RECEPTOR A” (Mayo Foundation for Medical Education and Research, priority 2023, published 2025)
“And” between values parts separate entries of the source, which are not always exact repeats. Identical values can stand only once.

Target: T1, particulate guanylyl cyclase receptor A (pGC-A) (Homo sapiens, UniProt P16066)
T1 construct: expressed in transfected cells; host or cells: HEK293
T1 sequence (P16066 33-1061): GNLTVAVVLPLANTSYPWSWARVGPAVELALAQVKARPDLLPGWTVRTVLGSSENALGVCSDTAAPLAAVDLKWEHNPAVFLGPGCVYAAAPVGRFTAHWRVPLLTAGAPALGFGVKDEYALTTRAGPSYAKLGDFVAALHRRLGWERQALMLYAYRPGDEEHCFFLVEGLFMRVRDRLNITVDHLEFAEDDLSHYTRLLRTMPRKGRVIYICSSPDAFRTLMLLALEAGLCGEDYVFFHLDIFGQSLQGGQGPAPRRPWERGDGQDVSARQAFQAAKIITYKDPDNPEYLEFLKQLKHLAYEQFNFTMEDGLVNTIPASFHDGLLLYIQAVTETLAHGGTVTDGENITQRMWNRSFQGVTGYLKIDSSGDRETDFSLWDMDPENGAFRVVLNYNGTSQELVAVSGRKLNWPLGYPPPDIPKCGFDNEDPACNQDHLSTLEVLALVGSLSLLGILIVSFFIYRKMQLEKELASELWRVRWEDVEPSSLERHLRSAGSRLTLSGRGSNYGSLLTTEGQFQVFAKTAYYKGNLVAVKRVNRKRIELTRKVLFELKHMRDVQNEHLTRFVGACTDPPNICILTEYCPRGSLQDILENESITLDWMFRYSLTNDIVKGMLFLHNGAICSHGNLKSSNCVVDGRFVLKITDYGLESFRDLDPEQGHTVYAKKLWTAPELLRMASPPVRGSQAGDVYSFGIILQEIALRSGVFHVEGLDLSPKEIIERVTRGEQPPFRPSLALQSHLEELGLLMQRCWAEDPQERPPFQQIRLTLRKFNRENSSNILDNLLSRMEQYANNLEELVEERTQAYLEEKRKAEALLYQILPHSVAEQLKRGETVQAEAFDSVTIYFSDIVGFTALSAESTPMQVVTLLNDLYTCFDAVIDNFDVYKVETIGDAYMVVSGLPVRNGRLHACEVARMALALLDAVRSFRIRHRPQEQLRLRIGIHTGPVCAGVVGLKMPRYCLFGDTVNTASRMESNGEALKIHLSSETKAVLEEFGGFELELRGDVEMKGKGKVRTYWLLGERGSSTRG
T1 sequence (P01160 124-151 partner limits assumed): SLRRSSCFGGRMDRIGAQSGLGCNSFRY
Experiment: cGMP production by HTRF in HEK293 cells overexpressing pGC-A, with ANP
Type: cell-based
Settings: for Emax: HEK293, HEK293 cells overexpressing pGC-A, read-out: Max efficacy; for EC50: test compound plus EC20 concentration of ANP, cGMP by HTRF
Summary of the method: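 Suspension cells stimulated 30 min at room temperature with test compound (10 μM stock in DMSO) plus ANP near EC20 in HBSS/5 mM HEPES/0.05% BSA. cGMP quantified by competitive HTRF immunoassay (Eu3+ cryptate anti-cGMP, d2-cGMP), normalized to cGMP from EC80 ANP; EC50 derived with or without ANP.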

[1] = cGMP normalized to maximal amount produced by an EC80 concentration of ANP
[2] = HEK293 cells overexpressing pGC-A

Row | Structure (SMILES) | Emax [1] | Max efficacy (HEK293 cells overexpressing pGC-A, cGMP normalized to maximal amount produced by an EC80 concentration of ANP) | EC50 [2]
1 | CN1CCC(N2CCCC(C(=O)Nc3nc4c(F)cc(F)cc4s3)C2)C1 (stereo not drawn) [compound 090] | 85% | 69% | 0.16 µM and 0.07 µM
2 | O=C(Nc1nc2c(F)cc(F)cc2s1)C1CCCN(C(=O)NCc2ccccc2)C1 (stereo not drawn) [compound 279] | – | – | > 5 µM
3 | COc1ccccc1C(=O)Nc1nc2c(F)cc(F)cc2s1 [compound 203] | – | – | > 10 µM
4 | CN(C)CCN1CCCC(C(=O)Nc2nc3c(C(F)(F)F)cccc3s2)C1 (stereo not drawn) [compound 002] | – | – | > 10 µM
5 | CN(C)CCN1CCCC(C(=O)Nc2nc(-c3ccc(Cl)cc3)cs2)C1 (stereo not drawn) [compound 150] | – | – | > 5 µM
6 | CN(C)CCN1CCCC(C(=O)Nc2nc(-c3ccc(F)cc3)cs2)C1 (stereo not drawn) [compound 147] | – | – | > 5 µM
7 | CN1CCCC(CN2CCCC(C(=O)Nc3nc4c(F)cc(F)cc4s3)C2)C1 (stereo not drawn) [compound 074] | 80% | – | 1.1 µM
8 | CCN(CC)C(=O)N1CCCC(C(=O)Nc2nc3c(F)cc(F)cc3s2)C1 (stereo not drawn) [compound 276] | 49% | – | 1.6 µM and > 5 µM
9 | O=C(Nc1nc2c(F)cc(F)cc2s1)C1CCCN(CCn2ccnc2)C1 (stereo not drawn) [compound 068] | 89% | – | 0.9 µM

More lines, in order of falling EC50 [2], values ahead:

Row | Emax [1] | Max efficacy (HEK293 cells overexpressing pGC-A, cGMP normalized to maximal amount produced by an EC80 concentration of ANP) | EC50 [2] | Structure (SMILES)
10 | 98% | – | 0.9 µM | CN(C)CCCN1CCCC(C(=O)Nc2nc3c(F)cc(F)cc3s2)C1 (stereo not drawn) [compound 231]
11 | 105% | – | 0.7 µM | CN(C)CC(=O)N1CCCC(C(=O)Nc2nc3c(F)cc(F)cc3s2)C1 (stereo not drawn) [compound 230]
12 | 94% | – | 0.4 µM | CN1CCCCC1CN1CCCC(C(=O)Nc2nc3c(F)cc(F)cc3s2)C1 (stereo not drawn) [compound 073]
13 | 70% | – | 0.28 µM | O=C(Nc1nc2c(Cl)cc(F)cc2s1)C1CCCN(c2ccncc2)C1 (stereo not drawn) [compound 104]
14 | 89% | – | 0.05 µM | C=CCN1CCC(N2CCCC(C(=O)Nc3nc4c(F)cc(F)cc4s3)C2)C1 (stereo not drawn) [compound 092]
